# Assay: recombinant barcode read abundance after kanamycin selection (control-corrected) (log10(CPM+1)); higher = more efficient recombination; sequences stand for … in AGTGCAGAGAAAATCGGCCAGTTTTCTCTGCCTGCAGTCCGCATGCCGT…ATTTATGCAGCGGACTGCCTTTCTCCCAAAGTGATAAACCGGACAGTATCATGGACCGGTTTTCCCGGTAATCCGTATTTGCAAGGTTGGTTTCACT; site = the 11-nt target
# Method: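 Same pooled E. coli target screen (IS621 bridge recombinase, kanamycin selection, control-corrected CPM, mean of 2 biological replicates). Here the two core-binding nucleotides of the LTG and RTG of the bridge RNA target-binding loop are mutated. Target and donor CT cores are held constant, and the other 9 guide positions match the target. The target is read from the library oligo sequence. Molecule = full bridge RNA written as DNA: nt 1-80 from the library oligo, rest WT scaffold.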
row,Sequence,recombinant barcode read abundance (log10)
1,"ATGCTTTCTTGGGTTCTAACCTGTTGCCTTC [ATGCTTTCTAG_LTGcore_CT_RTGcore_GA] (site ATGCTTTCTAG) (LTG core: CT, RTG core: GA)",0.0663
2,"ATGCTTTGGTGGGTTCTAACCTGTTGCCTAG [ATGCTTTCTAG_LTGcore_GG_RTGcore_CT] (site ATGCTTTCTAG) (LTG core: GG, RTG core: CT)",0.179
3,"ATGCTTTGTTGGGTTCTAACCTGTTGCCTAC [ATGCTTTCTAG_LTGcore_GT_RTGcore_GT] (site ATGCTTTCTAG) (LTG core: GT, RTG core: GT)",0.302
4,"ATGCTTTGTTGGGTTCTAACCTGTTGCCTAG [ATGCTTTCTAG_LTGcore_GT_RTGcore_CT] (site ATGCTTTCTAG) (LTG core: GT, RTG core: CT)",0.0408
5,"ATGTCCCACTGGGTTCTAACCTGTTGCTCAG [ATGTCCCCTGA_LTGcore_AC_RTGcore_CT] (site ATGTCCCCTGA) (LTG core: AC, RTG core: CT)",0.172
6,"ATGTCCCCATGGGTTCTAACCTGTTGCTCAG [ATGTCCCCTGA_LTGcore_CA_RTGcore_CT] (site ATGTCCCCTGA) (LTG core: CA, RTG core: CT)",0.527
7,"ATGTCCCCTTGGGTTCTAACCTGTTGCTCTA [ATGTCCCCTGA_LTGcore_CT_RTGcore_TA] (site ATGTCCCCTGA) (LTG core: CT, RTG core: TA)",0.107
8,"ATGTCCCCTTGGGTTCTAACCTGTTGCTCTC [ATGTCCCCTGA_LTGcore_CT_RTGcore_GA] (site ATGTCCCCTGA) (LTG core: CT, RTG core: GA)",0.0163
9,"ATGTCCCGCTGGGTTCTAACCTGTTGCTCGC [ATGTCCCCTGA_LTGcore_GC_RTGcore_GC] (site ATGTCCCCTGA) (LTG core: GC, RTG core: GC)",0.103
10,"ATGTCCCTATGGGTTCTAACCTGTTGCTCAG [ATGTCCCCTGA_LTGcore_TA_RTGcore_CT] (site ATGTCCCCTGA) (LTG core: TA, RTG core: CT)",0.0463
11,"ATGTCCCTATGGGTTCTAACCTGTTGCTCTA [ATGTCCCCTGA_LTGcore_TA_RTGcore_TA] (site ATGTCCCCTGA) (LTG core: TA, RTG core: TA)",0.208
12,"ATGTCCCTTTGGGTTCTAACCTGTTGCTCAA [ATGTCCCCTGA_LTGcore_TT_RTGcore_TT] (site ATGTCCCCTGA) (LTG core: TT, RTG core: TT)",0.0472
13,"CATATTAAGTGGGTTCTAACCTGTTGCCTCT [CATATTACTAG_LTGcore_AG_RTGcore_AG] (site CATATTACTAG) (LTG core: AG, RTG core: AG)",0.0293
14,"CATATTAATTGGGTTCTAACCTGTTGCCTAG [CATATTACTAG_LTGcore_AT_RTGcore_CT] (site CATATTACTAG) (LTG core: AT, RTG core: CT)",0.195
15,"CATATTACATGGGTTCTAACCTGTTGCCTAG [CATATTACTAG_LTGcore_CA_RTGcore_CT] (site CATATTACTAG) (LTG core: CA, RTG core: CT)",0.126
16,"CATATTACTTGGGTTCTAACCTGTTGCCTAC [CATATTACTAG_LTGcore_CT_RTGcore_GT] (site CATATTACTAG) (LTG core: CT, RTG core: GT)",1.01
17,"CATATTAGATGGGTTCTAACCTGTTGCCTTC [CATATTACTAG_LTGcore_GA_RTGcore_GA] (site CATATTACTAG) (LTG core: GA, RTG core: GA)",0.0675
18,"CATATTAGCTGGGTTCTAACCTGTTGCCTAG [CATATTACTAG_LTGcore_GC_RTGcore_CT] (site CATATTACTAG) (LTG core: GC, RTG core: CT)",0.73
19,"CATATTAGGTGGGTTCTAACCTGTTGCCTAG [CATATTACTAG_LTGcore_GG_RTGcore_CT] (site CATATTACTAG) (LTG core: GG, RTG core: CT)",0.182
20,"CATATTATATGGGTTCTAACCTGTTGCCTTA [CATATTACTAG_LTGcore_TA_RTGcore_TA] (site CATATTACTAG) (LTG core: TA, RTG core: TA)",0.00689
21,"CGAGCCCACTGGGTTCTAACCTGTTGCTGGT [CGAGCCCCTCA_LTGcore_AC_RTGcore_AC] (site CGAGCCCCTCA) (LTG core: AC, RTG core: AC)",0.0238
22,"CGAGCCCCGTGGGTTCTAACCTGTTGCTGAG [CGAGCCCCTCA_LTGcore_CG_RTGcore_CT] (site CGAGCCCCTCA) (LTG core: CG, RTG core: CT)",0.587

row,Sequence,recombinant barcode read abundance (log10)
1,"CGAGCCCCTTGGGTTCTAACCTGTTGCTGAC [CGAGCCCCTCA_LTGcore_CT_RTGcore_GT] (site CGAGCCCCTCA) (LTG core: CT, RTG core: GT)",0.19
2,"CGAGCCCCTTGGGTTCTAACCTGTTGCTGCA [CGAGCCCCTCA_LTGcore_CT_RTGcore_TG] (site CGAGCCCCTCA) (LTG core: CT, RTG core: TG)",0.0283
3,"CGAGCCCCTTGGGTTCTAACCTGTTGCTGGC [CGAGCCCCTCA_LTGcore_CT_RTGcore_GC] (site CGAGCCCCTCA) (LTG core: CT, RTG core: GC)",0.405
4,"CGAGCCCGCTGGGTTCTAACCTGTTGCTGAG [CGAGCCCCTCA_LTGcore_GC_RTGcore_CT] (site CGAGCCCCTCA) (LTG core: GC, RTG core: CT)",0.195
5,"CGAGCCCGCTGGGTTCTAACCTGTTGCTGGC [CGAGCCCCTCA_LTGcore_GC_RTGcore_GC] (site CGAGCCCCTCA) (LTG core: GC, RTG core: GC)",0.0793
6,"CGAGCCCGTTGGGTTCTAACCTGTTGCTGAG [CGAGCCCCTCA_LTGcore_GT_RTGcore_CT] (site CGAGCCCCTCA) (LTG core: GT, RTG core: CT)",0.102
7,"CGCGCCCAATGGGTTCTAACCTGTTGCGGTT [CGCGCCCCTCC_LTGcore_AA_RTGcore_AA] (site CGCGCCCCTCC) (LTG core: AA, RTG core: AA)",0.134
8,"CGCGCCCACTGGGTTCTAACCTGTTGCGGAG [CGCGCCCCTCC_LTGcore_AC_RTGcore_CT] (site CGCGCCCCTCC) (LTG core: AC, RTG core: CT)",0.0345
9,"CGCGCCCACTGGGTTCTAACCTGTTGCGGGT [CGCGCCCCTCC_LTGcore_AC_RTGcore_AC] (site CGCGCCCCTCC) (LTG core: AC, RTG core: AC)",0.0786
10,"CGCGCCCCCTGGGTTCTAACCTGTTGCGGAG [CGCGCCCCTCC_LTGcore_CC_RTGcore_CT] (site CGCGCCCCTCC) (LTG core: CC, RTG core: CT)",0.158
11,"CGCGCCCCTTGGGTTCTAACCTGTTGCGGAC [CGCGCCCCTCC_LTGcore_CT_RTGcore_GT] (site CGCGCCCCTCC) (LTG core: CT, RTG core: GT)",0.0615
12,"CGCGCCCCTTGGGTTCTAACCTGTTGCGGAT [CGCGCCCCTCC_LTGcore_CT_RTGcore_AT] (site CGCGCCCCTCC) (LTG core: CT, RTG core: AT)",0.243
13,"CGCGCCCCTTGGGTTCTAACCTGTTGCGGCG [CGCGCCCCTCC_LTGcore_CT_RTGcore_CG] (site CGCGCCCCTCC) (LTG core: CT, RTG core: CG)",0.0742
14,"CGCGCCCCTTGGGTTCTAACCTGTTGCGGGT [CGCGCCCCTCC_LTGcore_CT_RTGcore_AC] (site CGCGCCCCTCC) (LTG core: CT, RTG core: AC)",0.266
15,"CGCGCCCCTTGGGTTCTAACCTGTTGCGGTT [CGCGCCCCTCC_LTGcore_CT_RTGcore_AA] (site CGCGCCCCTCC) (LTG core: CT, RTG core: AA)",0.146
16,"CGCGCCCGATGGGTTCTAACCTGTTGCGGAG [CGCGCCCCTCC_LTGcore_GA_RTGcore_CT] (site CGCGCCCCTCC) (LTG core: GA, RTG core: CT)",0.217
17,"CGCGCCCGCTGGGTTCTAACCTGTTGCGGGC [CGCGCCCCTCC_LTGcore_GC_RTGcore_GC] (site CGCGCCCCTCC) (LTG core: GC, RTG core: GC)",0.552
18,"CGCGCCCGTTGGGTTCTAACCTGTTGCGGAG [CGCGCCCCTCC_LTGcore_GT_RTGcore_CT] (site CGCGCCCCTCC) (LTG core: GT, RTG core: CT)",0.062
19,"CGGTCCCCATGGGTTCTAACCTGTTGCCATG [CGGTCCCCTTG_LTGcore_CA_RTGcore_CA] (site CGGTCCCCTTG) (LTG core: CA, RTG core: CA)",0.185
20,"CGGTCCCCGTGGGTTCTAACCTGTTGCCACG [CGGTCCCCTTG_LTGcore_CG_RTGcore_CG] (site CGGTCCCCTTG) (LTG core: CG, RTG core: CG)",0.342
21,"CGGTCCCCTTGGGTTCTAACCTGTTGCCAAA [CGGTCCCCTTG_LTGcore_CT_RTGcore_TT] (site CGGTCCCCTTG) (LTG core: CT, RTG core: TT)",0.0341
22,"CGGTCCCCTTGGGTTCTAACCTGTTGCCAAG [CGGTCCCCTTG_LTGcore_CT_RTGcore_CT] (site CGGTCCCCTTG) (LTG core: CT, RTG core: CT)",1.32

# — the supplement of paper PMC11208160
